In patent US4925834A, “3-methylene-4-androsten-17-ones, process for their production and pharmaceutical preparations containing them” (Schering Aktiengesellschaft, priority 1987, dated 1990):

Tested on: aromatase
Test: PMSG test in infantile female rats, orally (serum estradiol)
Type: in vivo, rat
Conditions: for Concentration in serum estradiol / % inhibition (against the PMSG control): 10 mg/animal, 2 × p.o., PMSG-treated infantile female rats; for Concentration in serum estradiol: mean with standard deviation, groups of 10; for % inhibition (against the PMSG control): serum estradiol; for effectiveness in oral application: 2×10 mg, PMSG test, in words
Description: The aromatase activity can be measured by the influence of the estrogen formation stimulated by PMSG. [J. Steroid. Biochem., 7 (1976) 787] Anit-tumor activity in humans of compounds which have a positive effect in the PMSG test is described in The Lancet, 1 Dec. 1984, ppg. 1237-1239.
In the so-called PMSG test 21-day-old female rats are pretreated subcutaneously every other day for a total of 7 times with 100 IU of PMSG each time. 1 hour before and 8 hours after the last PMSG application (d12) the animals receive the test substance by oral dose. They are killed 24 hours after the last PMSG application. The estradiol is examined radioimmunologically in the serum. The average value of the estradiol concentration in nmol/l with standard deviation is calculated for each group of 10 animals. The significance of the differences from the control group are examined by analysis of variance.
The percentage inhibition is calculated against the PMSG control.

Row | SMILES | Concentration in serum estradiol [nmol/L] | % inhibition (against the PMSG control) [%] | effectiveness in oral application
1 | C=C1C=C2CC[C@@H]3[C@H](CC[C@]4(C)C(=O)CC[C@@H]34)[C@@]2(C)CC1 (stereo in doubt) [B, 3-methylene-4-androsten-17-one] | 6.20 ± 0.80 | 0 | no effectiveness
2 | C[C@]12CCC(=O)C(O)=C1CC[C@@H]1[C@@H]2CC[C@]2(C)C(=O)CC[C@@H]12 [A, 4-hydroxy-4-androstene-3,17-dione] | 6.08 ± 0.56 | 0 | no effectiveness
3 | CSC[C@]12CCC(=CF)C=C1CC[C@@H]1[C@@H]2CC[C@]2(C)C(=O)CC[C@@H]12 [C, 3-fluoromethylene-19-methylthio-4-androsten-17-one] | 3.24 ± 0.81 | 45 | markd inhibition effectiveness
